In a melting point compilation (Tetko et al.; mined from patent text by program, amines drawn as free bases though some values may be those of a salt):

SMILES | melting point [°C]
COc1ccc(C(=O)Nc2ccc(C(=O)c3ccccc3)cc2)cc1 | 171 to 174
COC(=O)CNc1ccc(F)c(F)c1 | 71 to 73
CCc1cccc2c1CCN([C@@H]1CN3CCC1CC3)C2=O | > 290
COC(=O)c1cccc2c1nc(-c1c(F)cccc1F)n2Cc1c(F)cccc1F | 184 to 186
O=C(CCCCCOc1ccc([N+](=O)[O-])cc1)OCCOCCOC(=O)CCCCCOc1ccc([N+](=O)[O-])cc1 | 60 to 62
CC1(C)Cc2ccccc2C1NC=NC#N (centres undefined) | 164 to 167
N#CCCNC(=O)c1cccc(-c2cccc3nn(Cc4cc(F)cc(Cl)c4)cc23)c1 | 207 to 208
O=S(=O)(Cl)c1ccc(SSc2ccc(S(=O)(=O)Cl)cc2)cc1 | 139
Nc1c(Cl)ccc2c1C(=O)CO2 | 160
Nc1cc(Cl)ccc1CO | 104 to 105
O=c1c(-c2ccc(F)cc2)c(-c2ccc(S(=O)(=O)C(F)(F)F)cc2)cnn1Cc1ccccc1 | 80 to 115
COc1ccc(Br)c2cc(C(=O)c3cccc(C(F)(F)F)c3)oc12 | 78 to 79
Oc1ccc(-c2ccc(-c3c(Cc4ccccc4)sc4ccccc34)cc2)cc1Br | 54 to 56
Cc1nnc(COc2ccc([N+](=O)[O-])cc2)o1 | 105 to 106
CCCCc1ncc(C=O)n1Cc1ccc(C(=O)OC)cc1 | 62 to 64
O=C(CCCCCOc1ccccc1OCc1ccccc1)C(F)(F)F | 31 to 32
O=C(NCCO)/C(=C/c1ccc(OC(F)(F)F)cc1)NC(=O)c1ccc(OCCC(F)(F)F)cc1 | 159 to 160
COC1=C(OC)C(=O)C2=C(CCC(CCOc3ccc(C#N)cc3)CC2)C1=O | 105 to 107
CCCn1c(=O)c2c(NC)n[nH]c2n(Cc2ccc(Br)cc2)c1=O | 308 to 310
CC(C)(C)OC(=O)NCC(COC(C(F)(F)F)(C(F)(F)F)C(F)(F)F)(COC(C(F)(F)F)(C(F)(F)F)C(F)(F)F)C(=O)O | 128 to 130
CCN(CC)C(=O)c1cc(-c2ccccc2)c(=O)n2c1-c1cc(Cl)ccc1CN2 | 192 to 194
Nc1nc(Cl)cc(Oc2ccc3c(c2)CCCCN3C(=O)Nc2cccc(C(F)(F)F)c2)n1 | 175
Cc1nc2c(c3c1[nH]c1ccccc13)CCC(C)(C)C2 | 241 to 243

SMILES | melting point [°C]
COc1ccc(-n2ncc(C(N)=O)c2N)cc1 | 213 to 215
Cn1c(=O)[nH]c(=O)c2c1ncn2CCCCCCO | 219 to 220
N#CCCNC(=O)c1cccc(-c2ccnc3cc(Cc4cccc(C(F)(F)F)c4)nn23)c1 | 153 to 154
Oc1ccc(-c2cnc(-c3ccccc3)[nH]c2=S)cc1O | 220
S=C(NCn1nnc2ccccc21)NCn1nnc2ccccc21 | 205 to 206
CCOC(=O)Nc1ccc(C2CCN(C(=O)OC(C)(C)C)CC2)cc1 | 126 to 128
CCCCCCCCCC(C)CNc1cccc(-c2ccnc3c(C(=O)c4cccs4)cnn23)c1 (centres undefined) | 108 to 110
COc1cc(S(=O)(=O)CCO)ccc1[N+](=O)[O-] | 95 to 96
COc1ccc2c(O)c(CO)cnc2c1 | 291 to 297
O=C(O)[C@H](Cc1ccccc1)NS(=O)(=O)c1ccc(N2CCN(c3ccccc3)CC2)cc1 | 192 to 193
COc1cc2c(cc1Nc1ncc(F)c(Nc3ccc(N4CCOCC4)cc3OC)n1)CCN(CC(=O)OC(C)C)CC2 | 94 to 110
CC1(C)CC(=O)c2cc(OCC(F)(F)F)c(OCC(F)(F)F)cc2O1 | 92 to 93
CC(C)c1nc(N)oc1-c1ccc(F)c2ccccc12 | 141
CS(=O)(=O)c1ccc(Oc2ccc(Cl)c(Cl)c2)nc1C#N | 168 to 170
CC(Oc1ccc2c(=O)c(-c3ccccc3)coc2c1)C(=O)O (centres undefined) | 201 to 202
C=CCc1c2n(c3ccccc13)C(=O)C(=Cc1ncn(C(c3ccccc3)(c3ccccc3)c3ccccc3)c1C)CC2 | 211 to 214
CCc1c(C(=O)c2cc(C)cc(C)c2)n(CCC2=CCCC2)c(=O)[nH]c1=O | 211 to 213
Cc1ccc(C(=O)Cn2c(=NS(=O)(=O)c3ccc(C)cc3)sc3ccccc32)cc1 | 180 to 182
COC(=O)N[C@H](C(=O)N[C@@H](Cc1ccccc1)[C@@H](O)CN(Cc1ccc(-c2nccs2)cc1)NC(=O)OC(C)(C)C)C(C)C | 178 to 179
COc1cccc(OC(=O)NC2C(=O)N(CCC(C)C)c3cc(Cl)ccc3N(c3ccccc3)C2=O)c1 (centres undefined) | 129 to 130
Cc1nc2c(F)c(F)cc(F)c2s1 | 91 to 92
CN(C)c1ccc2nc[nH]c(=O)c2c1 | 233 to 236
CC(C)n1c(=O)sc2cc([N+](=O)[O-])ccc21 | 138 to 142

SMILES | melting point [°C]
C[C@]12CCC(=O)N[C@@H]1CCc1cc(Sc3ccccn3)ccc12 | 223 to 225
CS(=O)(=O)c1ccc(-c2n[nH]c(=O)cc2-c2ccc(Cl)cc2)cc1 | 254 to 255
CNC(=O)NCC1OC(n2cc(C)c(=O)[nH]c2=O)CC1O (centres undefined) | 238 to 239
CCCCC(C(=O)O)c1cccc(C(=O)c2cc3ccsc3s2)c1 (centres undefined) | 131
O=C(O)C[C@H]1CC[C@H](Cn2nc(-c3cccs3)c(Cc3cc4c(cc3Cl)OCO4)c2C(=O)O)CC1 | 240
CCOC(=O)CN(Cc1ccccc1)C(=S)CCc1nc2c(F)c(F)cc(F)c2s1 | 86 to 88
CCN1C[C@@H](O)[C@H](NC2CCCCC2)C1 (relative stereo) | 68 to 71
c1cncc(CNC2=Nc3ccccc3Nc3ncccc32)c1 | 192 to 194
COc1cc(C2(C)COc3c(OC)cc(C=O)cc32)ccc1O (centres undefined) | 162 to 165
COCCNc1cc(Cl)nc(-c2ccccc2)n1 | 128 to 130
CCC(C)(C)OC(=O)NC(C)(Cc1c[nH]c2ccccc12)C(=O)NCCc1ccncc1 (centres undefined) | 138 to 141
CCCCC[C@H]1CC[C@H](c2ccc(-c3nc(N)nc(N)n3)cc2)CC1 | > 250
CCOC(=O)c1cnn2c1c(NC(C)CC)nc1ccccc12 (centres undefined) | 82 to 84
CC(C)(C)C1C=C(Cn2nc(-c3ccccc3-c3nn(CC4=CC(C(C)(C)C)C(O)(C(C)(C)C)C=C4)c(=O)o3)oc2=O)C=CC1(O)C(C)(C)C (centres undefined) | 220
COC(=O)c1cc2cc(COc3cccnc3)ccc2s1 | 106 to 107
CC1(C)CCC2(C(=O)O)CCC3(C)C(=CCC4C5(C)CC(O)C(O)C(C)(CO)C5CCC43C)C2C1O (centres undefined) | 220 to 222
COc1ccc(CC2CCN(C(=O)C(=O)Nc3ccc4[nH]c(=O)oc4c3)CC2)cc1 | 193 to 197
CNC(=O)C(C)Oc1ncn(-c2cccc(C(F)(F)F)c2)n1 (centres undefined) | 137 to 139
CC(C)(C)OC(=O)NC[C@H]1CC[C@H](CNS(=O)(=O)c2cccc3ccccc23)CC1 | 199 to 200
O=NSC1(CCOC(=O)CCC(=O)O)C2CC3CC(C2)CC1C3 (centres undefined) | 63 to 70
COc1ccccc1N1CCN(CCn2c(=O)c3ccsc3n(C)c2=O)CC1 | 174 to 176
CCNc1cccnc1N1CCN(C(=O)c2ccc(C(=O)NCc3ccccn3)cn2)CC1 | 129 to 131
COc1ccc(-c2ccc(C(=O)Nc3ccc4cc(CN5CCCC5)cnc4c3)cn2)cc1 | 246 to 248
